# Results reported in patent US8563565B2, “Pyrazoloquinoline derivatives” (Eisai R&D Management Co., Ltd., priority 2011, dated 2013).
# Where two headings read alike, the source gives them in different places.
# Key:
# [1] = target: T1, human recombinant PDE9 protein (Homo sapiens, UniProt O76083); test: PDE9 inhibitory activity test (measurement of PDE9 inhibitory action, [3H]-cGMP); assay type: biochemical; settings: PDE9 IC50, human recombinant PDE9, 30° C., 10 min
# T1 construct: His-tag (inferred from the Ni column purification; a myc His-tag vector is named only for the HEK293 expression check); made in house; host or cells: silkworm (pYNG vector, Katakura Industries)
# T1 sequence (O76083 whole entry): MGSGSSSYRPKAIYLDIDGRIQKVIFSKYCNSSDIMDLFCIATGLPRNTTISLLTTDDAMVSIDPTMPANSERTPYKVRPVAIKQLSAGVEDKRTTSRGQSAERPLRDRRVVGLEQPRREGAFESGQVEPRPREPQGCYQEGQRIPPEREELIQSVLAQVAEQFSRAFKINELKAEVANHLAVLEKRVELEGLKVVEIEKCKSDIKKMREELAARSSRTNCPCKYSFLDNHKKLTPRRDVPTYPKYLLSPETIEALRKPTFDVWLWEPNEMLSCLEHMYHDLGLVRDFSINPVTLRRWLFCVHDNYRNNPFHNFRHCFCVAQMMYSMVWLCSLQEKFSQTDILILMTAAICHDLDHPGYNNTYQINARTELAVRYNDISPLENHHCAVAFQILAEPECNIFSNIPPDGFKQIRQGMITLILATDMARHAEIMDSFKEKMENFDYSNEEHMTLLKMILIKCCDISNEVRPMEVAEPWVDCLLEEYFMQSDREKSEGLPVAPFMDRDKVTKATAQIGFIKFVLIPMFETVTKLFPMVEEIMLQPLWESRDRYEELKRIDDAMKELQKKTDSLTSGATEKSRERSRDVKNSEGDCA
# Text: 1) Preparation of a Human Recombinant PDE9 Protein
# An hsPDE9A 1cDNA fragment was amplified by being based on a base sequence (Accession No.: AF048837) of the hsPDE9A1 registered on GenBank data base, and by using the following sequences (Hokkaido System Science Co., Ltd.) as a primer and Human hippocampus cDNA library (Clontech Laboratories, Inc.) as a template DNA, and using Pfu50 DNA polymerase (Invitrogen Corp.), and by a polymerase chain reaction (PCR) of the following condition.
# The condition of PCR: [96° C., 5 min]×1 cycle, [(96° C., 10 sec), (57° C., 5 sec), (72° C., 2 min)]×30 cycles
# The obtained hsPDE9A 1 cDNA fragment was incorporated in a TOPO-TA cloning vector (Invitrogen Corp.), and the base sequence was checked; and thereafter, the resultant was transfected in a pcDNA 3.1/myc His-tag vector (Invitrogen Corp.) to thereby make a human PDE9 expression vector for mammal cells. The human PDE9 expression vector for mammal cells was transfected with transient expression to an HEK293 cell by using a LIPOFETAMINE 2000 Reagent (Gibco). It was confirmed by Western blot method that the PDE9A expressed in the HEK293 cell, and then, the human PDE9A 1cDNA fragment was transfected in a pYNG vector (Katakura Industries Co., Ltd.) to thereby make an expression vector for insect cells. A supernatant of homogenized silk worm in which a large amount of PDE9 was expressed was purified by an equilibrated Ni column using a buffer A (20 mmol/L Tris-HCl, pH: 8.0, 1 mmol/L DTT, 10 mmol/L imidazole). After 1 hour of mixing of the supernatant and the Ni column, cleaning was carried out using a buffer B (20 mmol/L Tris-HCl, pH: 8.0, 1 mmol/L […]), and elution was carried out using a buffer C (20 mmol/L Tris-HCl, pH: 8.0, 1 mmol/L DTT, 100 mmol/L imidazole). An elution fraction was preparatively collected to thereby obtain a PDE9 enzyme solution.
# 2) Measurement of PDE9 Inhibitory Action
# To 100 μL of a buffer D (40 mmol/L Tris-HCl, pH: 7.4, 10 mmol/L MgCl2, 1 mM DTT, 2 μM cGMP) solution containing [^3H]-cGMP ([…]/mL), 10 μL of a compound solution for evaluation (a solution in which a compound was dissolved in DMSO and diluted so that the DMSO concentration became 5%) and 90 μL of a solution prepared by diluting the PDE9 enzyme solution prepared in the above with a buffer E (40 mmol/L Tris-HCl, pH: 7.4, 10 mmol/L MgCl2, 1 mM DTT, 1 mmol/L EGTA) were added under ice cooling. The resultant mixed solution was incubated at 30° C. for 10 min, and thereafter heated for 2 min in boiled water to stop the enzyme reaction of the PDE9. Then, the resultant was returned to room temperature; 50 μL of 5′-Nucleotidase (Biomol GmbH, 10 units/mL) was added thereto; and the resultant was incubated at 30° C. for 10 min to thereby convert [^3H]-5′-GMP formed in the previous reaction to [^3H]-guanosine. 500 μL of an anion exchange resin (Bio-Rad AG1-X2 resin, mesh size: 200-400, H2O:resin=2:1) was added to the resultant reaction liquid, and allowed to stand for 10 min, and thereafter centrifuged (2,000 rpm, 10 min); and a supernatant in which the [^3H]-guanosine was present was transferred to a LumaPlate (PerkinElmer, Inc.), and the radioactivity was measured by a TopCount NXT microplate scintillation and luminescence counter (PerkinElmer, Inc.).
# The inhibition percentage of the evaluation compound was calculated using the following expression, taking the radioactivity of a control containing no evaluation compound to be (A), the radioactivity of a blank containing no enzyme to be (B), and the radioactivity of the evaluation compound to be (C). Inhibition percentage=100−{[(C)−(B)]/[(A)−(B)]}×100(%)
# The IC50 value for PDE9 of the evaluation compound was determined from inhibition percentage for various concentrations.
# [2] = system: cGMP in the cerebrospinal fluid; test: Effect on rodent cerebrospinal fluid cGMP (mouse); assay type: in vivo, ICR male mice; settings: 10 mg/kg p.o., sampling time 0.5 hr
# Description: (§1) 3) Effect on Rodent Cerebrospinal Fluid cGMP
# (§2) The test compound was administered to ICR male mice (Charles River Laboratories Japan, Inc.), Sprague-Dawley male rats (SD) (Charles River Laboratories Japan, Inc.) or Long-Evans male rats (LE) (Institute for Animal Reproduction), and the cerebrospinal fluid was then collected under pentobarbital anesthesia and stored at −20° C. cGMP in the cerebrospinal fluid was measured in accordance with the acetylation EIA procedure of cGMP EIA kit (GE Healthcare) or the non-acetylation procedure of cGMP EIA kit (Cayman) The result was an increase (C) in the amount of cGMP of the test compound-administered group (B) relative to the amount of cGMP of the vehicle-administered group (A), and was calculated using the following formula cGMP increase(C)=[(B)−(A)]/(A)×100(%)
# [3] = system: cGMP in the cerebrospinal fluid; test: Effect on rodent cerebrospinal fluid cGMP (rat); assay type: in vivo; settings: po, read-out: % CSF cGMP increase from vehicle control
# Description: as §1, §2
# cGMP in the hippocampus = test: Effect on rodent hippocampal cGMP; assay type: in vivo, rat; settings: po, read-out: % hippocampal cGMP increase from vehicle control
# Description: 4) Effect on Rodent Hippocampal cGMP
# The test compound was administered to Sprague-Dawley male rats (Charles River Laboratories Japan, Inc.) or Long-Evans male rats (Institute for Animal Reproduction) and then the animals were sacrificed with microwave under pentobarbital anesthesia, and the hippocampus was extracted. After measuring the wet weight, the hippocampus was frozen with liquid nitrogen and stored at −80° C. In the measurement of cGMP in the hippocampus, a 0.5 M perchloric acid/1 mM EDTA solution was added at 5% (w/v) based on the wet weight, and the mixture was homogenized. After the homogenization, the homogenate was centrifuged (10000 rpm, 15 min), and the supernatant was collected. The collected supernatant was neutralized with a 2 M potassium bicarbonate solution and centrifuged (13000 rpm, 10 min). The cGMP concentration in the supernatant was measured in accordance with the non-acetylation EIA procedure of cGMP EIA kit (GE Healthcare). The result was an increase (C) in the amount of cGMP of the test compound-administered group (B) relative to the amount of cGMP of the vehicle-administered group (A), and was calculated using the following formula. cGMP increase(C)=[(B)−(A)]/(A)×100(%)
# [4] = rat(LE), 30 mg/kg p.o., sampling time 1 hr
IC50 [1],SMILES,"change in vivo at 10 mg/kg ([3]; Rattus norvegicus, 1 h)","change in vivo at 10 mg/kg (cGMP in the hippocampus; Rattus norvegicus, 1 h)",also measured
0.0101 µM,"COc1ncc(C)c(-c2cc3[nH]c(=O)c4cnn([C@H]5CCOC5)c4c3cc2F)c1C [Example 53, (S)-8-fluoro-7-(2-methoxy-3,5-dimethylpyridin-4-yl)-1-(tetrahydrofuran-3-yl)-1H-pyrazolo[4,3-c]quinolin-4(5H)-one]",202%,27%,–
0.0175 µM,"COc1cc(C)c(-c2cc3[nH]c(=O)c4cnn([C@H]5CCOC5)c4c3cc2F)c(C)n1 [Example 55, (S)-8-fluoro-7-(6-methoxy-2,4-dimethylpyridin-3-yl)-1-(tetrahydrofuran-3-yl)-1H-pyrazolo[4,3-c]quinolin-4(5H)-one]",323%,17%,–
0.0105 µM,"COc1ncc(C)c(-c2ccc3c(c2)[nH]c(=O)c2cnn(C4COCCOC4)c23)c1C [Example 43, 1-(1,4-dioxepan-6-yl)-7-(2-methoxy-3,5-dimethylpyridin-4-yl)-1H-pyrazolo[4,3-c]quinolin-4(5H)-one]",292%,33%,–

# Further lines, the molecule ahead of its results:
SMILES,IC50 [1],"change in vivo at 10 mg/kg ([3]; Rattus norvegicus, 1 h)","change in vivo at 10 mg/kg (cGMP in the hippocampus; Rattus norvegicus, 1 h)",also measured
"Cc1cc(C)c(-c2ccc3c(c2)[nH]c(=O)c2cnn(C4CCOCC4)c23)c(C)n1 [Example 2, 7-(2,4,6-trimethylpyridin-3-yl)-1-(tetrahydro-2H-pyran-4-yl)-1H-pyrazolo[4,3-c]quinolin-4(5H)-one]",0.025 µM,–,–,% CSF cGMP increase from vehicle control [2]: 110%
"COc1ncc(C)c(-c2ccc3c(c2)[nH]c(=O)c2cnn(C4CCOCC4)c23)c1C [Example 15, 7-(2-methoxy-3,5-dimethylpyridin-4-yl)-1-(tetrahydro-2H-pyran-4-yl)-1H-pyrazolo[4,3-c]quinolin-4(5H)-one]",0.00887 µM,–,–,"change in vivo at 30 mg/kg [3, 4]: 203%; change in vivo at 30 mg/kg (cGMP in the hippocampus; [4]): 33%"
"COc1cc(C)c(-c2ccc3c(c2)[nH]c(=O)c2cnn(C4CCOC4)c23)c(C)n1 (single isomer, unassigned; (-)) [29 (−), (−)-7-(6-methoxy-2,4-dimethylpyridin-3-yl)-1-(tetrahydrofuran-3-yl)-1H-pyrazolo[4,3-c]quinolin-4(5H)-one]",0.0307 µM,–,–,"change in vivo at 30 mg/kg ([3]; Rattus norvegicus, 1 h): 238%; change in vivo at 30 mg/kg (cGMP in the hippocampus; Rattus norvegicus, 1 h): 34%"
"COc1nc(C)cc(C)c1-c1ccc2c(c1)[nH]c(=O)c1cnn(C3CCOCC3)c12 [Example 4, 7-(2-methoxy-4,6-dimethylpyridin-3-yl)-1-(tetrahydro-2H-pyran-4-yl)-1H-pyrazolo[4,3-c]quinolin-4(5H)-one]",0.00437 µM,–,–,"change in vivo at 30 mg/kg ([3]; Rattus norvegicus, 1 h): 246%; change in vivo at 30 mg/kg (cGMP in the hippocampus; Rattus norvegicus, 1 h): 25%"
"COc1cc(C)c(-c2ccc3c(c2)[nH]c(=O)c2cnn(C4CCOCC4)c23)c(C)n1 [Example 3, 7-(6-methoxy-2,4-dimethylpyridin-3-yl)-1-(tetrahydro-2H-pyran-4-yl)-1H-pyrazolo[4,3-c]quinolin-4(5H)-one]",0.014 µM,–,–,"change in vivo at 10 mg/kg ([3]; Rattus norvegicus, 2 h): 186%; change in vivo at 10 mg/kg (cGMP in the hippocampus; Rattus norvegicus, 4 h): 32%"
